Several values for one entry are separate records, joined by “and”; a condition that tells them apart may be missing. Equal values may be shown once.
Experiments:
genotype 1 HCV = test: Study VX-222-102 Part A: plasma HCV RNA reduction; format: in vivo, Hepatitis C virus
Procedure: In Part A of Study 102 subjects were randomized to VX-222 or placebo in a 6:2 (VX-222: placebo) allocation ratio to either Cohort 1, Cohort 2, Cohort 3, or Cohort 4. Subjects enrolled in Cohort 1, Cohort 2, and Cohort 3 were administered 250 mg, 500 mf, or 750 mg VX-222 or placebo twice daily (b.i.d.) for 3 days, respectively. Subjects enrolled in Cohort 4 were administered 1,500 mg VX-222 or placebo once daily (qd) for 3 days. Standard of care treatment, Peg-IFN-alpha-2a and RBV was offered to the subjects at the end of dosing in Part A for up to 48 weeks, if judged appropriate by the physician.
Additional results of Study VX-222-102 are described in FIGS. 2-8: Thirty-two treatment-naïve patients with chronic genotype 1 HCV infection were enrolled in the trial, including six patients in each dose group who received 250 mg of VX-222 BID, 500 mg of VX-222 BID, 750 mg of VX-222 BID, and 1,500 mg of VX-222 QD. Two patients received placebo in each of the four dosing groups, for a total of eight patients who received placebo. Part A of the trial was conducted at 10 centers in the United States, Canada and Argentina. Of the patients enrolled in the trial, 24 patients had genotype 1a HCV infection and eight patients had genotype 1b HCV infection. Six of the patients enrolled in the trial were African American, 25 were Caucasian and one was American Indian/Alaskan.
Multicenter, randomized, double-blinded, placebo-controlled, dose-ranging study • HCV genotype 1-infected patients • With no evidence of cirrhosis • ALT values <5×ULM • Plasma HCV RNA of >5 log10 IU/mL at screening • 4-arm comparative study (6:2 randomization VX-222: placebo) • Enrollment in this dosing—ranging study was sequential • 250 mg BID for 3 days • 500 mg BID for 3 days • 750 mg BID for 3 days • 1500 mg QD for 3 days.

Huh-7, ET replicon cells = test: Drug combination luciferase assay (4-day, MacSynergy); format: cell-based, Hepatitis C virus; details: combination with VX-950, 4 days
Excerpt: Replicon cell lines Huh-7, ET cells derived from the Huh-7 hepatocarcinoma cell line are obtained from Dr. Ralf Bartenschlager (Bartenschlager, R. Innovation: Hepatitis C virus replicons: potential role for drug development. Nat. Rev. Drug Discov. 2002, 1, 911-916. Krieger, N.; Lohmann, V.; Bartenschlager, R. Enhancement of hepatitis C virus RNA replication by cell culture-adaptive mutations. J. Virol. 2001, 75, 4614-4624. Lohmann, V.; Korner, F.; Koch, J.-O.; Herian, U.; Theilmann, L.; Bartenschlager, R. Replication of subgenomic hepatitis C virus RNAs in a hepatoma cell line. Science. 1999, 285, 110-113.) (Reblikon GmbH, Gau-Odernheim, Germany). […]
Huh-7, ET replicon cells are seeded in white opaque 96-well cell culture microtiter plates at sub-confluent density (3×10^3 cells per well) in a volume of 100 μL media. […] Plates are read for Luciferase counts using a luminometer (Wallac MicroBeta Trilux, Perkin Elmer™, MA, USA). […]

CC1CCC(C(=O)N(c2cc(C#CC(C)(C)C)sc2C(=O)O)C2CCC(O)CC2)CC1 (stereo not drawn) [VX-222, 5-(3,3-Dimethylbut-1-ynyl)-3-[(trans-4-hydroxycyclohexyl)-(4-trans methylcyclohexanecarbonyl)amino]thiophene-2-carboxylic acid]
mean HCV RNA decline after three days of dosing (genotype 1 HCV; 250 mg BID): 3.1 log10
Mean Viral Load Reduction at Day 4 (genotype 1 HCV; 250 mg b.i.d. for 3 days): −3.1
mean HCV RNA decline after three days of dosing (genotype 1 HCV; 500 mg BID): 3.4 log10
Mean Viral Load Reduction at Day 4 (genotype 1 HCV; 500 mg b.i.d. for 3 days): −3.4
mean HCV RNA decline after three days of dosing (genotype 1 HCV; 750 mg BID): 3.2 log10
Mean Viral Load Reduction at Day 4 (genotype 1 HCV; 750 mg b.i.d. for 3 days): −3.2
mean HCV RNA decline after three days of dosing (genotype 1 HCV; 1,500 mg QD): 3.4 log10
Mean Viral Load Reduction at Day 4 (genotype 1 HCV; 1,500 mg QD for 3 days): −3.4
mean log HCV RNA decrease on Day 4 (genotype 1 HCV; Cohort 1, 250 mg b.i.d.): 3.1 log
mean log HCV RNA decrease on Day 4 (genotype 1 HCV; Cohort 2, 500 mg b.i.d.): 3.4 log
mean log HCV RNA decrease on Day 4 (genotype 1 HCV; Cohort 3, 750 mg b.i.d.): 3.2 log
mean log HCV RNA decrease on Day 4 (genotype 1 HCV; Cohort 4, 1,500 mg once a day): 3.6 log
mean reductions in plasma HCV RNA (genotype 1 HCV; across the four VX-222 dose groups): greater than 3 log10
in vitro IC90 (in vitro IC90 of VX-222): 0.319 µg/mL
Results VX-950 (synergy class) (Huh-7, ET replicon cells): Moderated synergy (50 uM^2%-100 uM^2%)
volume of synergy (Huh-7, ET replicon cells; listed as 1): 90 uM^2% and 86 uM^2%
